The nature of data set [1]: Injection site reactions in cattle. It is filed as in vivo. As to conditions: injectable pharmaceutical compositions. The method, then:
Cattle injected with injectable pharmaceutical compositions containing Compound (A) were evaluated for reactions at the injection site. These injection site reactions were compared to the injection site reactions of cattle injected with injectable pharmaceutical compositions containing Compounds (B) and (C). The compounds were formulated as aqueous solution injectable pharmaceutical compositions or as suspension injectable pharmaceutical compositions as indicated below. These formulations were prepared as described in Examples 1 and 2. Compound (A) was formulated as both an aqueous solution using the free base form of the compound and as a suspense using the dihydrochloride salt of the compound. The composition of the aqueous solution injectable pharmaceutical composition was 15% w/v of Compound A, 15% w/v Poloxamer […], 6% w/v Benzyl Alcohol, 7% w/v Citric Acid, and QS Water. The composition of the suspension injectable pharmaceutical composition was 15% w/v Compound A (17.5% w/v HCl salt of Compound A), 0.1% w/v Kolliphor HS 15 and QS Miglyol 812. Compound A was administered to the animals in a dose of 10 mg/kilogram of body weight. Compound (B) was formulated as both an aqueous solution using the free base form of the compound and as a suspense using the dihydrochloride salt of the compound. The composition of the aqueous solution injectable pharmaceutical composition was 15% w/v of Compound B, 15% w/v Poloxamer […], 6% w/v Benzyl Alcohol, 7% w/v Citric Acid, and QS Water. The composition of the suspension injectable pharmaceutical composition was 15% w/v Compound B (17.5% w/v HCl salt of Compound B), 0.1% w/v Kolliphor HS 15 and QS Miglyol 812. Compound A was administered to the animals in a dose of 10 mg/kilogram of body weight. Compound (C) was formulated as both an aqueous solution using the free base form of the compound. The composition of the aqueous solution injectable pharmaceutical composition was 10% w/v of Compound C, 15% w/v Poloxamer […], 6% w/v Benzyl Alcohol, 7% w/v Citric Acid, and QS Water. Compound A was administered to the animals in a dose of 10 mg/kilogram of body weight. Injection sites were examined clinically by a trained person, Size of the swelling is measured with a ruler to the closest 0.5 cm horizontally, vertical and depth. These three measured values were multiplied to an estimation of the volume of the square box surrounding the observed swelling.

Data set [2] has as its system A. pleuropneumoniae. Put plainly: MIC determination, broth-microdilution (CLSI VET01-A4), field isolates. It is filed as cell-based, Actinobacillus pleuropneumoniae. How it is done: (§1) This study determined the in vitro activity Compound (A), the enantiomer of the compound of Formula (I), against different isolates of Actinobacillus (A.) pleuropneumoniae, Bordetella (B.) bronchiseptica, Mannheimia (M.) haemolytica, Pasteurella (P.) multocida, Histophilus (H.) somni and Glaesserella parasuis collected in different European countries.
(§2) The in vitro activity was determined by measuring the minimum inhibitory concentrations (MIC) according to CLSI document VET01-A4 [1] and by calculating MIC50 and MIC90.
(§3) A total of 193 field isolates were tested: 31 of A. pleuropneumoniae, 20 of B. bronchiseptica, 20 of H. somni, 20 H. parasuis, 55 of M. haemolytica and 47 of P. multocida. All bacteria were isolated from the respiratory tract of cattle and swine suffering from respiratory disease. All isolates were epidemiologically unrelated as specified by the different suppliers. E. coli ATCC 25922 (ID 6105) and M. haemolytica ATCC 33396 (ID 6374) were used as reference strains for testing isolates of B. bronchiseptica, M. haemolytica and P. multocida. A. pleuropneumoniae ATCC 27090 (ID 6314) and H. somni ATCC 700025 (ID 6315) were used as reference strains for the testing isolates of A. pleuropneumoniae, H. somni and Glaesserella parasuis. Additionally, H. parasuis (G. parasuis) ATCC 19417 was included as type strain for growth control.
(§4) • Mueller-Hinton agar (Becton Dickinson, Lot 9224866) • Cation-adjusted Mueller-Hinton broth, (CAVHB, Becton Dickinson, Lot 8190586) • Sheep blood, defibrinated (Thermo Scientific, Lot 37091500) • Chocolate agar, GC II with IsoVitalex™ (Becton Dickinson, Lot 0147695) • GC-agar base (Becton Dickinson, Lot 6082608) • Hemoglobin solution (Becton Dickinson, Lot 7142854) • Vitox (Oxoid, Lot 2344976) • Veterinary fastidious Medium (VFM), prepared according to CLSI document VET01-A4 [1], containing: • CAMHB (Becton Dickinson, Lot 8190586) • Yeast extract (Sigma, Lot BCBS5470V) • Lysed horse blood (Thermo Scientific, Lot 35875000) • Supplement C™ (Becton Dickinson, Lot 8030960) • Deionized water
(§5) The MICs for all isolates except for H. somni and Glaesserella parasuis isolates, were determined by using the broth-microdilution method according to CLSI document VET01-A4 [1]. For isolates of H. somni and Glaesserella parasuis the agar-dilution method with chocolate agar GC II, was used. The test concentration range for all compounds was 16 μg/mL to 0.016 μg/mL.
The MIC results were interpreted according to the CLSI document VET01-S3 [2]. […] All wells containing test item were compared with the growth-control wells. The lowest concentration of compound at which no visible growth (i.e. no turbidity) was detected by the unaided eye was recorded as the MIC. […]
In general terms: In broth dilution the organism is exposed to a series of concentrations in liquid medium.

The subject of data set [3] is microbes that cause respiratory disease in animals. Put plainly: Activity against the microbes that cause respiratory disease in animals (statement). The data set is classed as cell-based.
Data set [4] has as its system H. somni. Put plainly: MIC determination, agar dilution (chocolate agar GC II), field isolates. The data set is classed as cell-based, Histophilus somni. How it is done: as §1, §2, §3, §4, §5
For isolates tested by the agar-dilution method, results were interpreted according to the CLSI document VET01-S3 [2]. […] The MIC50 and MIC90 represent the concentrations at which a minimum of 50% or 90% of the isolates tested are inhibited.

Setting [5] is: Actinobacillus pleuropneumoniae, 31 isolates, broth microdilution.

The structures appear in SMILES notation. Converted amounts (≈) assume the structure as drawn.

In general, MIC50 refers to the lowest concentration that inhibits either 50% of growth or 50% of the strains tested, depending on the study. In general, MIC90 refers to the lowest concentration that inhibits either 90% of growth or 90% of the strains tested, depending on the study. A higher MIC90 goes with lower susceptibility. As for `COCCNCc1ccc(C#Cc2ccc(C(=O)N[C@H](C(=O)NO)C(C)(C)N)cc2)cc1` [Compound A], the “Injection site reactions, overall assessment” value in data set [1] is on record as “minor injection reactions which were resolved by Day 6”. Besides, the “Injection site reactions, overall assessment” value in data set [1] (listed as Compound (A)) is “tolerated at the injection site”. In data set [2] (setting [5]), this molecule displayed an MIC50 of 1 µg/mL (≈ 2.28 µM) and an MIC90 of 2 µg/mL (≈ 4.56 µM). Besides, in data set [2] (of 31 isolates tested), the “Distribution of MICs: number of isolates with MIC 1 μg/mL” value stood at 22 and the “Distribution of MICs: number of isolates with MIC 2 μg/mL” value is on record as 9. Also, the “Activity against the microbes that cause respiratory disease in animals” value in data set [3] is “activity against the microbes that cause respiratory disease in animals”. In data set [4] (Histophilus somni, 20 isolates), this molecule had an MIC50 of 1 µg/mL (≈ 2.28 µM) and an MIC90 of 2 µg/mL (≈ 4.56 µM). For the same molecule, in data set [4] (of 20 isolates tested), the “Distribution of MICs: number of isolates with MIC 0.25 μg/mL” value is on record as 1, the “Distribution of MICs: number of isolates with MIC 0.5 μg/mL” value was determined as 1, the “Distribution of MICs: number of isolates with MIC 1 μg/mL” value is recorded as 14 and the “Distribution of MICs: number of isolates with MIC 2 μg/mL” value was 4.

The values above are taken from patent US20250057790A1, “AN INJECTABLE PHARMACEUTICAL COMPOSITION FOR THE TREATMENT OF RESPIRATORY DISEASES IN ANIMALS” (priority 2021, published 2025).
